For 10 molecules, IC50 results are on record in ChEMBL document CHEMBL1121688 (J Med Chem, 1981).

As a reminder, the IC50 is the concentration at which inhibition is half-maximal.

A value given as a limit tells only on which side of the number the result lay.

The target in one assay is Dopamine receptor. Description: Relative affinity for dopamine receptor by displacement of [3H]spiroperidol (2.2 nM) from (in vitro) dopamine binding sites in rat caudate nuclei.
For assay [1], the target named is Muscarinic acetylcholine receptor. Description: Concentration required (in vitro) to displace 50% specific binding of [3H]clozapine to Muscarinic acetylcholine receptor in rat brain. Format: tissue-based.
The nature of assay [2]: Concentration required (in vitro) to displace 50% specific binding of [3H]clozapine to non-muscarinic sites in rat brain in presence of 1 uM atropine. Format: tissue-based.
A short description of assay [3]: Concentration required (in vitro) to displace 50% specific binding of [3H]clozapine to sites in rat brain.

Regarding `CN1CCN(C2=Cc3cc(Cl)ccc3Cc3ccccc32)CC1`, the IC50 on Dopamine receptor stood at 342 nM; in assay [1], 670 nM; in assay [2] it was 13 nM.
For the molecule `CC1CCN(C2=Cc3ccccc3Cc3ccc(Cl)cc32)CC1`, the IC50 in assay [1] and in assay [2] was greater than 10000 nM in each case.
For the molecule `CN1CCN(C2=Cc3ccccc3Cc3ccc(Cl)cc32)CC1`, the IC50 on Dopamine receptor is 39 nM; in assay [1] it was 290 nM; in assay [2], 10 nM.
Regarding `CN1CCN(C2=Cc3ccccc3Cc3ccccc32)CC1`, the IC50 on Dopamine receptor came out at 808 nM; in assay [1], 610 nM; in assay [2], 3.7 nM.
On to `CN1CCC(C2=Cc3cc(Cl)ccc3Cc3ccccc32)CC1`, for which the IC50 at Dopamine receptor is 678 nM; in assay [1], 622 nM; in assay [2] it was 7 nM.
`CC1CCN(C2=Cc3cc(Cl)ccc3Cc3ccccc32)CC1`: the IC50 (on Dopamine receptor; in assay [1]; in assay [2]) was greater than 10000 nM in each case.
Turning to `CN1CCN(C2=Nc3cc(Cl)ccc3N(C)c3ccccc32)CC1`, the IC50 is 32400 nM on Dopamine receptor, 12 nM in assay [1] and 88 nM in assay [2].
`CN1CCN(C2=Nc3cc(Cl)ccc3Oc3ccccc32)CC1` [ISOLOXAPINE]: the values for the IC50 (on Dopamine receptor; in assay [1]; in assay [2]) were 2480 nM, 49 nM and 38 nM, respectively.
As for `CN1CCN(C2=Nc3ccccc3Nc3ccc(Cl)cc32)CC1` [ISOCLOZAPINE], the results for the IC50 (at Dopamine receptor; in assay [3]) were 758 nM and 17 nM, respectively.
For the molecule `CN1CCN(C2=Nc3cc(Cl)ccc3Nc3ccccc32)CC1` [CLOZAPINE], the IC50 in assay [2] is 13 nM.
